14 molecules from ChEMBL document CHEMBL3045597, “Antihyperglycemic, -glucosidase inhibitory and DPPH free radical scavenging activity of 5-bromosalicylaldehyde and schiff bases” (Med Chem Res, 2011) can be followed below.

Experiment [1] deals with Lysosomal alpha-glucosidase (Rattus norvegicus) (UniProt Q6P7A9). Kind of experiment: Inhibition of rat intestinal alpha-glucosidase using p-nitrophenyl- alpha-D-glucopyranoside as substrate at 200 uM preincubated for 5 min before addition of substrate measured after 10 min.
Lysosomal alpha-glucosidase (Rattus norvegicus), sequence (Q6P7A9 whole entry): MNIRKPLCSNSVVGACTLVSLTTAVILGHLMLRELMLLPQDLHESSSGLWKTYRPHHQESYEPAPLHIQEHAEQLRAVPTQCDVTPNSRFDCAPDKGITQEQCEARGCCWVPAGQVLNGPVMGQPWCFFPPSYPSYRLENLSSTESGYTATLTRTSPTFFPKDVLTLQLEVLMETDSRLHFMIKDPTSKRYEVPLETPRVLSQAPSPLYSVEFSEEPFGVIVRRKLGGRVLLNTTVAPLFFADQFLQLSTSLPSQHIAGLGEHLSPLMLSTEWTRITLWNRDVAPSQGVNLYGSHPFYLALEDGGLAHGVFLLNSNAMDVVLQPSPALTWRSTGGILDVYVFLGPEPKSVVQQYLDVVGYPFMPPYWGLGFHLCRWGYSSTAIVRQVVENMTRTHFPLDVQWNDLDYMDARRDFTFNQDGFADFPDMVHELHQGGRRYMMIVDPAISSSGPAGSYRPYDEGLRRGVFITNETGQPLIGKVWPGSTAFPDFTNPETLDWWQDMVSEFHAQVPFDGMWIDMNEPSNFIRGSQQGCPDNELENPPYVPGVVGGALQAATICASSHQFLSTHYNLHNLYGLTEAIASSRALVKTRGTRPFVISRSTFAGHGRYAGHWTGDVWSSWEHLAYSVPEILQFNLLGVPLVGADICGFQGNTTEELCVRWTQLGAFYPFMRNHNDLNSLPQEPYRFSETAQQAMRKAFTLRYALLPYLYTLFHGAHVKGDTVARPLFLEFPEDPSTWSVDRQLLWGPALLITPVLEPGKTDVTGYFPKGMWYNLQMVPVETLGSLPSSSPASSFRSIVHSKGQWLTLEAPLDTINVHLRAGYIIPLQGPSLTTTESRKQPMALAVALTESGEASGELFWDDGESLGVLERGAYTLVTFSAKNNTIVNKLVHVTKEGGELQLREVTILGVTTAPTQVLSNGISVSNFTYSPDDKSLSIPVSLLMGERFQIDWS
For experiment [2], the system named is Rattus norvegicus. Kind of experiment: Antihyperglycemic activity in starch fed Rattus norvegicus Wistar (rat) assessed as reduction of AUC of plasma glucose level at 50 mg/kg administered 15 min before starch feeding. It counts as functional, organism-based. The arrangement: dose 50 mg/kg.
Experiment [3] has as its system Rattus norvegicus. Kind of experiment: Antihyperglycemic activity in starch fed Rattus norvegicus Wistar (rat) assessed as reduction of plasma glucose level at 50 mg/kg administered 15 min before starch feeding measured up to 60 min. Also on record: dose 50 mg/kg. It counts as functional, organism-based.
The target of experiment [4] is Lysosomal alpha-glucosidase (Rattus norvegicus) (UniProt Q6P7A9). Kind of experiment: Inhibition of rat intestinal alpha-glucosidase using p-nitrophenyl- alpha-D-glucopyranoside as substrate at 300 uM preincubated for 5 min before addition of substrate measured after 10 min.
The subject of experiment [5] is Radical scavenging activity. As to the kind of experiment: Antioxidant activity assessed as DPPH free radical scavenging activity at 250 uM after 20 min. It counts as functional. For orientation: The DPPH test is a chemical assay of radical scavenging.
Experiment [6] has as its system Radical scavenging activity. Kind of experiment: Antioxidant activity assessed as DPPH free radical scavenging activity by measuring 50% radical scavenging concentration after 20 min. The class given is functional.

SMILES strings stand for the structures. Calls of active or inactive are those of the source. The rule behind the calls is not given here.

For the molecule `C/C(=N\NC(=O)c1ccccc1)c1ccc(C)cc1`, the inhibition in experiment [1] is 31.6%.
In the case of `COc1ccc(/N=C/c2ccccc2O)cc1`, the inhibition in experiment [1] was found to be 11.4%.
`O=Cc1cc(Br)ccc1O`: the outcome in the experiment with Rattus norvegicus [2] and in the experiment with Rattus norvegicus [3] was Active. Moreover, the inhibition in experiment [1] and in experiment [4] was 85.8% in each case.
For the molecule `Oc1ccccc1/C=N/CC/N=C/c1ccccc1O`, the result in experiment [5] was inactive. This molecule also showed an inhibition in experiment [1] of 29.1%.
In the case of `Oc1ccccc1/C=N\c1ccccc1/N=C/c1ccccc1O`, the Activity in experiment [5] was 75.3%; in experiment [6], 115 µM. Further, the inhibition in experiment [1] was determined as 57.9%.
For `Oc1ccc(Br)cc1/C=N/c1ccc(Cl)cc1`, the Activity in experiment [5] was 13.5%. Also, the inhibition result in experiment [1] was “inactive”.
The matching figures for `Oc1ccc(Br)cc1/C=N/CC/N=C/c1cc(Br)ccc1O`: “inactive” and 14.4%.
Take `Oc1ccccc1/C=N/c1ccc(Cl)cc1`: in experiment [5], the result was inactive. The molecule further had an inhibition in experiment [1] of 6.63%.
Take `O=[N+]([O-])c1ccc(/N=C/c2cc(Br)ccc2O)cc1`: the result in experiment [5] was inactive. In experiment [1], the inhibition result is “Active”.
Take `Oc1ccc(Br)cc1/C=N/c1ccccc1`: in experiment [5], the Activity came to 9.27%. Besides, in experiment [1], the inhibition entry is “Active”.
`Oc1ccccc1/C=N/c1ccccc1`: in experiment [5], the Activity came to 9.29%. For the same molecule, the inhibition result in experiment [1] is “Active”.
On to `COc1ccc(/N=C/c2cc(Br)ccc2O)cc1`, for which the Activity in experiment [5] came to 48.7%. In experiment [1], the inhibition result was “Active”.
Consider `O=[N+]([O-])c1ccc(/N=C/c2ccccc2O)cc1`, for which the result in experiment [5] was inactive. Besides, in experiment [1], the inhibition came out at 95.6%.
For `C/C(=N\CC/N=C(\C)c1ccccc1)c1ccccc1`, the inhibition result in experiment [1] was “Active”.

Usually inhibition stands for the relative decrease from the control value, in per cent.
